Where two headings read alike, the source gives them in different places.
B1: L7H: single histidine graft L7H on downhill folding protein gpW (protein, UniProt P68660 1-68, looked up, variant L7H)
Head completion protein: MTRQEEHAAARAALHDLMTGKRVATVQKDGRRVEFTATSVSDLKKYIAELEVQTGMTQRRRGPAGFYV

Experiments:
[1] = biological target: receptor binding domain (RBD) of the SARS-CoV-2 spike protein (Severe acute respiratory syndrome coronavirus 2, UniProt P0DTC2); conditions: cited from earlier work
[2] = Fluorescence spectroscopy of gpW FRET constructs upon pH titration
Procedure: Accordingly, the fluorescence integration was employed on this variant. Specifically, an extra cysteine was added at the N-terminal (N-ter), e.g., position 1, and the second cysteine was introduced near the C-terminal (C-ter) by replacing the methionine at position 56. These mutations allow us to chemically label the L7H with a FRET-pair to monitor the end-to-end distance of L7H (L7H-FRET). Another FRET-construct was also designed to measure the distance change between the beta-hairpin and the helix-1. […] In this regard, two cysteines were placed on the M18H-F35H variant by adding one cysteine at the N-ter (position 1) and replacing an aspartate (position 29) with cysteine. […] In both constructs, Alexa-488 maleimide and Alexa-594 maleimide are used as the FRET pair as they have many advantageous features. […]
Proteins samples were prepared at different pH by adding the labeled proteins 20 mM citrate buffer for experiments in the 3-6 pH range, phosphate buffer pH 7, and Tris-HCl buffer for the 8-9 pH range. […] Fluorescence emission spectra were recorded between 630 nm and 740 nm by exciting the ATTO 655 at 620 nm or between 490 nm and 720 nm by exciting the Alexa 488 at 480 nm. The pH titration on L7H-helix was triplicated, and L7H-Cter was replicated five times to calculate the standard deviation due to the concentration dependence of the PET fluorescence technique.

Molecule	Kd ([1]; read-out: binding affinity (KD) to SARS-CoV-2 S protein) [nM]	Kd ([1]; read-out: binding affinity (Kd) to SARS-CoV-2 spike protein RBD) [nM]	distance change as a function of pH [2]
GSGSGSTIEEQAKTFLDKANCEAEDLAYQSSLAS [ACE-2 α-helix]	1000	50	–
B1	–	–	less than 1 nm
